Experimental findings from US11773085B2 (Foghorn Therapeutics Inc., priority 2018, dated 2023) are described below.

Where only a bound is given, the exact number is not on record here.

The subject of assay [1] is synovial sarcoma cell lines (SYO1, Yamato, HS-SY-II, and ASKA). Kind of assay: Growth of synovial sarcoma cell lines (IncuCyte confluency, crystal violet, colony imaging). The assay is classed as cell-based. As to conditions: 1 μM in crystal violet assay, FIGS. 5, 6, 7. The procedure:
(§1) Cells were treated with DMSO or the BRD9 degrader, Compound 1, at indicated concentrations, and proliferation was monitored from day 7 to day 14 by measuring confluency over time using an IncuCyte live cell analysis system (FIG. 5). Growth medium and compounds were refreshed every 3-4 days.
(§2) Cells were seeded into 12-well plates and treated with DMSO, 1 μM BRD9 inhibitor, Compound 2 (also known as BI-7273, see Martin et al, J Med Chem. 59(10):4462-4475 (2016); see structure of compound 2 below), or 1 μM BRD9 degrader, Compound 1.
(§3) The number of cells was optimized for each cell line. Growth medium and compounds were refreshed every 3-5 days. SYO1, Yamato, A549, 293T and HS-SY-II cells were fixed and stained at day 11. ASKA cells were fixed and stained at day 23. Staining was done by incubation with crystal violet solution (0.5 g Crystal Violet, 27 ml 37% Formaldehyde, 100 mL 10×PBS, 10 mL Methanol, 863 dH20 to 1 L) for 30 min followed by 3× washes with water and drying the plates for at least 24 h at room temperature. Subsequently plates were scanned on an Odyssey CLx Imaging system (FIG. 6).
(§4) Cells were seeded into 96-well ultra low cluster plate (Costar, #7007) in 200 μL complete media and treated at day 2 with DMSO, Staurosporin, or BRD9 degarder, Compound 1, at indicated doses (FIG. 7). Media and compounds were changed every 5 d and cell colonies were imaged at day 14.

In assay [2] the test system is non-synovial control cancer cell lines (293T, A549, G401). Kind of assay: Growth of non-synovial control cancer cell lines (crystal violet, colony imaging). As to conditions: FIGS. 5, 6, 7. The class given is cell-based. As to the method: as §1, §2, §3, §4
Assay [3] concerns synovial sarcoma cell lines (SYO1, HS-SY-II, and ASKA). Put plainly: Growth of synovial sarcoma cell lines, crystal violet staining at day 14. The assay is classed as cell-based. As to conditions: SYO1, HS-SY-II, ASKA; treated daily, day 14; FIG. 8. The procedure: (§5) Cells were seeded into 6-well or 12-well plates and were treated daily with a BRD9 degrader (Compound 1), a bromo-domain BRD9 binder (Compound 2), E3 ligase binder (lenalidomide), DMSO, or staurosporin (positive control for cell killing), at indicated concentrations. The number of cells was optimized for each cell line. Growth media was refreshed every 5 days. By day 14, medium was removed, cells were washed with PBS, and stained using 500 μL of 0.005% (w/v) crystal violet solution in 25% (v/v) methanol for at least 1 hour at room temperature. Subsequently plates were scanned on an Odyssey CLx Imaging system.

Assay [4] relates to non-synovial control cancer cell lines (RD, HCT116, and Calu6). Kind of assay: Growth of non-synovial control cancer cell lines, crystal violet staining at day 14. As to conditions: treated daily, FIG. 9. The class given is cell-based. The procedure:
as §5

The next assay deals with BRD9 bromodomain (Homo sapiens (Human), UniProt Q9H8M2). Put plainly: BRD9 bromodomain TR-FRET competition binding assay. As to conditions: 3 nM Flag-BRD9, 3.75 nM biotinylated ligand, 90 minutes at room temperature. The procedure: Cleaved His tag was removed by purification.
A mixture of biotinylated-ligand and SureLight™ Allophycocyanin-Streptavidin (APC-SA, PerkinElmer AD0201) in 50 mM HEPES (pH 7.4), 50 mM NaCl, 1 mM TCEP (pH 7), 0.01% (v/v) Tween-20, 0.01% (w/v) bovine serum albumin was added to a white 384-well PerkinElmer Proxiplate Plus plate. DMSO or 3-fold serially diluted compounds were then added to the Proxiplate followed by addition of Flag-BRD9. After a 10 minute incubation at room temperature, Eu-W1024 anti-FLAG (PerkinElmer, AD0273) was added.

For assay [5], the target named is Nanoluciferase-BRD9 fusion protein (3×FLAG-NLuc-BRD9) (Homo sapiens (Human), UniProt Q9H8M2). Kind of assay: SYO1 BRD9 NanoLuc degradation assay. The class given is cell-based. As to conditions: SYO-1 cells expressing 3×FLAG-NLuc-BRD9, 6 hours, 1 μM top dose; read-out: SYO1 BRD9-NanoLuc degradation IC50. The procedure:
A stable SYO-1 cell line expressing 3×FLAG-NLuc-BRD9 was generated. On day 0 cells were seeded in 30 μL media into each well of 384-well cell culture plates. The seeding density was 8000 cells/well. […] Subsequently plates were incubated for 6 hours in a standard tissue culture incubator and equilibrated at room temperature for 15 minutes. Nanoluciferase activity was measured by adding 15 μL of freshly prepared Nano-Glo Luciferase Assay Reagent (Promega N1130), shaking the plates for 10 minutes and reading the bioluminescence using an EnVision reader.
The Inhibition % was calculated using the following formula: % Inhibition=100×(LumHC−LumSample)/(LumHC−LumLC). DMSO treated cells are employed as High Control (HC) and 1 μM of a known BRD9 degrader standard treated cells are employed as Low Control (LC).

On to `COc1cc(-c2cn(C)c(=O)c3cnccc23)cc(OC)c1CN(C)C` [Compound 2], for which the “inhibition of cell growth” value in assay [1] is on record as “results in inhibition of the growth of the cells”; in assay [2], “does not result in inhibition of the growth”; in assay [3], “resulted in inhibition of the growth of the cells”; in assay [4], “did not result in inhibition of the growth”.
`COc1cc(NCC(=O)NCCCCCCCCNc2cccc3c2C(=O)N(C2CCC(=O)NC2=O)C3=O)cc(-c2cn(C)c(=O)c3cnccc23)c1` (centres unmarked) [Compound D8, N-(8-[[2-(2,6-dioxopiperidin-3-yl)-1,3-dioxo-2,3-dihydro-1H-isoindol-4-yl]amino]octyl)-2-[[3-methoxy-5-(2-methyl-1-oxo-1,2-dihydro-2,7-naphthyridin-4-yl)phenyl]amino]acetamide formic acid] came in with an IC50 on BRD9 bromodomain of 10 to 100 nM. The DC50 in assay [5] is under 10 nM.
The matching figures for `COc1cc(-c2cn(C)c(=O)c3cnccc23)cc(OCC(=O)NCCCCCCCCNc2cccc3c2C(=O)N(C2CCC(=O)NC2=O)C3=O)c1CN(C)C` (centres unmarked) [Compound D9, 2-(2-((dimethylamino)methyl)-3-methoxy-5-(2-methyl-1-oxo-1,2-dihydro-2,7-naphthyridin-4-yl)phenoxy)-N-(8-((2-(2,6-dioxopiperidin-3-yl)-1,3-dioxoisoindolin-4-yl)amino)octyl)acetamide]: 10 to 100 nM and under 10 nM.
For `COc1cc(-c2cn(C)c(=O)c3cnccc23)cc(OCC(=O)NCCCCCCCCNc2cccc3c2C(=O)N(C2CCC(=O)NC2=O)C3=O)c1OC` (centres unmarked) [Compound D10, 2-(2,3-dimethoxy-5-(2-methyl-1-oxo-1,2-dihydro-2,7-naphthyridin-4-yl)phenoxy)-N-(8-((2-(2,6-dioxopiperidin-3-yl)-1,3-dioxoisoindolin-4-yl)amino)octyl)acetamide] the same measures were 10 to 100 nM and under 10 nM.
For `COc1cc(-c2cn(C)c(=O)c3cnccc23)cc(OC)c1CN(C)C(=O)CCCOc1cccc2c1C(=O)N(C1CCC(=O)NC1=O)C2=O` (centres unmarked) [Compound D11, N-[[2,6-dimethoxy-4-(2-methyl-1-oxo-1,2-dihydro-2,7-naphthyridin-4-yl)phenyl]methyl]-4-[[2-(2,6-dioxopiperidin-3-yl)-1,3-dioxo-2,3-dihydro-1H-isoindol-4-yl]oxy]-N-methylbutanamide] the same measures were under 10 nM and under 10 nM.
Turning to `COc1cc(-c2cn(C)c(=O)c3cnccc23)cc(OC)c1CN(C)C(=O)CCCCOc1cccc2c1C(=O)N(C1CCC(=O)NC1=O)C2=O` (centres unmarked) [Compound D12, N-[[2,6-dimethoxy-4-(2-methyl-1-oxo-1,2-dihydro-2,7-naphthyridin-4-yl)phenyl]methyl]-5-[[2-(2,6-dioxopiperidin-3-yl)-1,3-dioxo-2,3-dihydro-1H-isoindol-4-yl]oxy]-N-methylpentanamide], the IC50 on BRD9 bromodomain is under 10 nM. For the same compound, in assay [5], the DC50 is under 10 nM.
For `COc1cc(-c2cn(C)c(=O)c3cnccc23)cc(OC)c1CN(C)CC(=O)N(C)CCOCCOCCNc1cccc2c1C(=O)N(C1CCC(=O)NC1=O)C2=O` (centres unmarked) [Compound D13, 2-((2,6-dimethoxy-4-(2-methyl-1-oxo-1,2-dihydro-2,7-naphthyridin-4-yl)benzyl)(methyl)amino)-N-(2-(2-(2-((2-(2,6-dioxopiperidin-3-yl)-1,3-dioxoisoindolin-4-yl)amino)ethoxy)ethoxy)ethyl)-N-methylacetamide], at BRD9 bromodomain, the IC50 is 10 to 100 nM. For the same compound, the DC50 in assay [5] lay within 10 to 100 nM.
In the case of `COc1cc(-c2cn(C)c(=O)c3cnccc23)cc(OC)c1CN(C)C(=O)CCOc1cccc2c1C(=O)N(C1CCC(=O)NC1=O)C2=O` (centres unmarked) [Compound D14, N-[[2,6-dimethoxy-4-(2-methyl-1-oxo-1,2-dihydro-2,7-naphthyridin-4-yl)phenyl]methyl]-3-[[2-(2,6-dioxopiperidin-3-yl)-1,3-dioxo-2,3-dihydro-1H-isoindol-4-yl]oxy]-N-methylpropanamide], the IC50 at BRD9 bromodomain is under 10 nM. The DC50 in assay [5] is over 1000 nM.
For `COc1cc(-c2cn(C)c(=O)c3cnccc23)cc(OC)c1CN(C)Cc1cccc2c1C(=O)N(C1CCC(=O)NC1=O)C2=O` (centres unmarked) [Compound D15, 4-(((2,6-dimethoxy-4-(2-methyl-1-oxo-1,2-dihydro-2,7-naphthyridin-4-yl)benzyl)(methyl)amino)methyl)-2-(2,6-dioxopiperidin-3-yl)isoindoline-1,3-dione formic acid] the same measures were 10 to 100 nM and over 1000 nM.
For `COc1cc(-c2cn(C)c(=O)c3cnccc23)cc(OC)c1CN(C)CC(=O)N(C)CCOCCOCCNc1ccc2c(c1)C(=O)N(C1CCC(=O)NC1=O)C2=O` (centres unmarked) [Compound D16, 2-((2,6-dimethoxy-4-(2-methyl-1-oxo-1,2-dihydro-2,7-naphthyridin-4-yl)benzyl)(methyl)amino)-N-(2-(2-(2-((2-(2,6-dioxopiperidin-3-yl)-1,3-dioxoisoindolin-5-yl)amino)ethoxy)ethoxy)ethyl)-N-methylacetamide] the same measures were 10 to 100 nM and 10 to 100 nM.
Consider `COc1cc(-c2cn(C)c(=O)c3cnccc23)cc(OC)c1CN(C)CCCCCCCC(=O)N[C@H](C(=O)N1C[C@H](O)C[C@H]1C(=O)NCc1ccc(-c2scnc2C)cc1)C(C)(C)C` [Compound D19, (2S,4R)-1-[(2S)-2-[8-([[2,6-dimethoxy-4-(2-methyl-1-oxo-2,7-naphthyridin-4-yl)phenyl]methyl](methyl)amino)octanamido]-3,3-dimethylbutanoyl]-4-hydroxy-N-[[4-(4-methyl-1,3-thiazol-5-yl)phenyl]methyl]pyrrolidine-2-carboxamide], for which the IC50 at BRD9 bromodomain is 10 to 100 nM. Also, in assay [5], the DC50 is over 1000 nM.
At BRD9 bromodomain, `COc1cc(-c2cn(C)c(=O)c3cnccc23)cc(OC)c1CN(C)CCOCCOCC(=O)N[C@H](C(=O)N1C[C@H](O)C[C@H]1C(=O)NCc1ccc(-c2scnc2C)cc1)C(C)(C)C` [Compound D20] came in with an IC50 of 10 to 100 nM. Moreover, the DC50 in assay [5] was over 1000 nM.

The term IC50 denotes the concentration needed to halve the response being measured.
